Laboratory results: ChEMBL document CHEMBL1158870, “Antitumor agents. 180. Chemical Studies and cytotoxic evaluation of cumingianosides and cumindysoside A, antileukemic triterpene glucosides with a 14,18-cycloapotirucallane skeleton” (1997)

Key:
[1] = Cytotoxicity against human Hs 578T cells by SRB assay; assay type: functional
MDA-MB-435 = assay: Cytotoxicity against human MDA-MB-435 cells by SRB assay; assay type: functional
HT-29 = assay: Cytotoxicity against human HT29 cells by SRB assay; assay type: functional
[2] = Cytotoxicity against human ovarian cancer cells by SRB assay; assay type: functional; settings: Cancer cell lines
RXF 393 = assay: Cytotoxicity against human RXF393 cells by SRB assay; assay type: functional
[3] = Cytotoxicity against human renal cancer cells by SRB assay; assay type: functional; settings: Cancer cell lines
SW-620 = assay: Cytotoxicity against human SW620 cells by SRB assay; assay type: functional
[4] = Cytotoxicity against human melanoma cells by SRB assay; assay type: functional; settings: Melanoma cell
MDA-N = assay: Cytotoxicity against human MDA-N cells by SRB assay; assay type: functional
[5] = Cytotoxicity against human MCF7/ADR cells by SRB assay; assay type: functional; settings: NCI/ADR-RES
[6] = Cytotoxicity against human 786-O cells by SRB assay; assay type: functional; settings: 786-0
OVCAR-3 = assay: Cytotoxicity against human OVCAR-3 cells by SRB assay; assay type: functional
COLO 205 = assay: Cytotoxicity against human COLO205 cells by SRB assay; assay type: functional
A549 = assay: Cytotoxicity against human A549 cells by SRB assay; assay type: functional
NCI-H460 = assay: Cytotoxicity against human NCI-H460 cells by SRB assay; assay type: functional
K562 = assay: Cytotoxicity against human K562 cells by SRB assay; assay type: functional
KM12 = assay: Cytotoxicity against human KM12 cells by SRB assay; assay type: functional
SK-MEL-5 = assay: Cytotoxicity against human SK-MEL-5 cells by SRB assay; assay type: functional
PC-3 = assay: Cytotoxicity against human PC3 cells by SRB assay; assay type: functional
BT-549 = assay: Cytotoxicity against human BT549 cells by SRB assay; assay type: functional
NSCLC = assay: Cytotoxicity against human NSCLC cells by SRB assay; assay type: functional
NCI-H522 = assay: Cytotoxicity against human NCI-H522 cells by SRB assay; assay type: functional
RPMI-8226 = assay: Cytotoxicity against human RPMI8226 cells by SRB assay; assay type: functional
NCI-H322M = assay: Cytotoxicity against human NCI-H322M cells by SRB assay; assay type: functional
ACHN = assay: Cytotoxicity against human ACHN cells by SRB assay; assay type: functional
DU-145 = assay: Cytotoxicity against human DU145 cells by SRB assay; assay type: functional
SK-OV-3 = assay: Cytotoxicity against human SKOV3 cells by SRB assay; assay type: functional
SF-295 = assay: Cytotoxicity against human SF295 cells by SRB assay; assay type: functional
EKVX = assay: Cytotoxicity against human EKVX cells by SRB assay; assay type: functional
SNB-75 = assay: Cytotoxicity against human SNB75 cells by SRB assay; assay type: functional
CCRF-CEM = assay: Cytotoxicity against human CCRF-CEM cells by SRB assay; assay type: functional
HCT-15 = assay: Cytotoxicity against human HCT15 cells by SRB assay; assay type: functional
SK-MEL-28 = assay: Cytotoxicity against human SK-MEL-28 cells by SRB assay; assay type: functional
A498 = assay: Cytotoxicity against human A498 cells by SRB assay; assay type: functional
MCF7 = assay: Cytotoxicity against human MCF7 cells by SRB assay; assay type: functional
[7] = Cytotoxicity against human breast cancer cells by SRB assay; assay type: functional; settings: Cancer cell lines
UACC-257 = assay: Cytotoxicity against human UACC257 cells by SRB assay; assay type: functional
SN12C = assay: Cytotoxicity against human SN12C cells by SRB assay; assay type: functional
CAKI-1 = assay: Cytotoxicity against human Caki1 cells by SRB assay; assay type: functional
NCI-H23 = assay: Cytotoxicity against human NCI-H23 cells by SRB assay; assay type: functional
[8] = Cytotoxicity against human prostate cancer cells by SRB assay; assay type: functional; settings: Cancer cell lines
[9] = Cytotoxicity against human HL60(TB) cells by SRB assay; assay type: functional, HL-60(TB); settings: HL-60
HCT-116 = assay: Cytotoxicity against human HCT116 cells by SRB assay; assay type: functional
T47D = assay: Cytotoxicity against human T47D cells by SRB assay; assay type: functional
Leukemia cell = assay: Cytotoxicity against human Leukemia cells by SRB assay; assay type: functional
UO-31 = assay: Cytotoxicity against human UO31 cells by SRB assay; assay type: functional
SNB-19 = assay: Cytotoxicity against human SNB19 cells by SRB assay; assay type: functional
HOP-92 = assay: Cytotoxicity against human HOP92 cells by SRB assay; assay type: functional
HCC 2998 = assay: Cytotoxicity against human HCC2998 cells by SRB assay; assay type: functional
Malme-3M = assay: Cytotoxicity against human MALME-3M cells by SRB assay; assay type: functional
OVCAR-5 = assay: Cytotoxicity against human OVCAR5 cells by SRB assay; assay type: functional
U-251 = assay: Cytotoxicity against human U251 cells by SRB assay; assay type: functional
SK-MEL-2 = assay: Cytotoxicity against human SK-MEL-2 cells by SRB assay; assay type: functional
HOP-62 = assay: Cytotoxicity against human HOP62 cells by SRB assay; assay type: functional
NCI-H226 = assay: Cytotoxicity against human NCI-H226 cells by SRB assay; assay type: functional
[10] = Cytotoxicity against human CNS cancer cells by SRB assay; assay type: functional; settings: Cancer cell lines
MDA-MB-231 = assay: Cytotoxicity against human MDA-MB-231 cells by SRB assay; assay type: functional
M14 = assay: Cytotoxicity against human M14 cells by SRB assay; assay type: functional
IGROV-1 = assay: Cytotoxicity against human IGROV1 cells by SRB assay; assay type: functional
SF-268 = assay: Cytotoxicity against human SF268 cells by SRB assay; assay type: functional
UACC-62 = assay: Cytotoxicity against human UACC62 cells by SRB assay; assay type: functional
MOLT-4 = assay: Cytotoxicity against human MOLT4 cells by SRB assay; assay type: functional
LOX IMVI = assay: Cytotoxicity against human LOXIMVI cells by SRB assay; assay type: functional
[11] = Cytotoxicity against human Colon cancer cells by SRB assay; assay type: functional; settings: Cancer cell lines
SR = assay: Cytotoxicity against human SR cells by SRB assay; assay type: functional
OVCAR-4 = assay: Cytotoxicity against human OVCAR4 cells by SRB assay; assay type: functional
OVCAR-8 = assay: Cytotoxicity against human OVCAR8 cells by SRB assay; assay type: functional

C=C(C)[C@@H](O)[C@H](O)C[C@H](C)[C@@H]1CC[C@]2(C)C1=CC[C@@H]1[C@@]3(C)CC[C@@H](OC(C)=O)C(C)(C)[C@@H]3C[C@@H](O[C@@H]3O[C@H](COC(C)=O)[C@@H](O)[C@H](O)[C@H]3O)[C@]12C
GI50 [1]: 2.34 µM
GI50 (MDA-MB-435): 1.95 µM
GI50 (HT-29): 1.91 µM
TGI (HT-29): 3.8 µM
TGI [2]: 7.4 µM
GI50 (RXF 393): 2.09 µM
TGI [3]: 9.7 µM
GI50 (SW-620): 3.02 µM
TGI (SW-620): 10.4 µM
TGI [4]: 4.2 µM
GI50 (MDA-N): 2.34 µM
GI50 [5]: 16.2 µM
GI50 [6]: 3.72 µM
GI50 (OVCAR-3): 1.86 µM
GI50 (COLO 205): 2.04 µM
TGI (COLO 205): 3.5 µM
GI50 (A549): 3.24 µM
GI50 (NCI-H460): 2.45 µM
GI50 (K562): 1.91 µM
GI50 (KM12): 1.58 µM
TGI (KM12): 3 µM
GI50 (SK-MEL-5): 1.91 µM
GI50 (PC-3): 2.14 µM
GI50 (BT-549): 3.39 µM
TGI (NSCLC): 9 µM
GI50 (NCI-H522): 1.82 µM
GI50 (RPMI-8226): 1.91 µM
GI50 (NCI-H322M): 1.86 µM
GI50 (ACHN): 1.91 µM
GI50 (DU-145): 2.57 µM
GI50 (SK-OV-3): 2.88 µM
GI50 (SF-295): 2.19 µM
GI50 (EKVX): 3.16 µM
GI50 (SNB-75): 1.86 µM
GI50 (CCRF-CEM): 2.24 µM
GI50 (HCT-15): 2.95 µM
TGI (HCT-15): 10 µM
GI50 (SK-MEL-28): 2.34 µM
GI50 (A498): 3.89 µM
GI50 (MCF7): 2.75 µM
TGI [7]: 10.7 µM
GI50 (UACC-257): 2.75 µM
GI50 (SN12C): 3.09 µM
GI50 (CAKI-1): 2.63 µM
GI50 (NCI-H23): 4.17 µM
TGI [8]: 7 µM
GI50 [9]: 2.09 µM
GI50 (HCT-116): 1.86 µM
TGI (HCT-116): 3.5 µM
GI50 (T47D): 2.57 µM
TGI (Leukemia cell): 5.1 µM
GI50 (UO-31): 3.89 µM
GI50 (SNB-19): 3.89 µM
GI50 (HOP-92): 2.34 µM
GI50 (HCC 2998): 0.0776 µM
TGI (HCC 2998): 0.9 µM
GI50 (Malme-3M): 1.58 µM
GI50 (OVCAR-5): 1.91 µM
GI50 (U-251): 2.19 µM
GI50 (SK-MEL-2): 2 µM
GI50 (HOP-62): 2.63 µM
GI50 (NCI-H226): 3.02 µM
TGI [10]: 9.5 µM
GI50 (MDA-MB-231): 1.86 µM
GI50 (M14): 2.09 µM
GI50 (IGROV-1): 2.34 µM
GI50 (SF-268): 2.82 µM
GI50 (UACC-62): 1.51 µM
GI50 (MOLT-4): 2.29 µM
GI50 (LOX IMVI): 1.62 µM
TGI [11]: 5 µM
GI50 (SR): 1.91 µM
GI50 (OVCAR-4): 2.95 µM
GI50 (OVCAR-8): 3.63 µM

C=C1[C@@H](O)C[C@@]23CC[C@@H]4[C@@]5(C)CC[C@@H](OC(C)=O)C(C)(C)[C@@H]5C[C@@H](O[C@@H]5O[C@H](COC(C)=O)[C@@H](O)[C@H](O)[C@H]5O)[C@@]4(C)C2=CC[C@H]3[C@H]1C
GI50 [1]: 4.9 µM
GI50 (MDA-MB-435): 4.79 µM
GI50 (HT-29): 2.34 µM
TGI (HT-29): 5.9 µM
TGI [2]: 17.6 µM
GI50 (RXF 393): 3.98 µM
TGI [3]: 22.1 µM
GI50 (SW-620): 7.24 µM
TGI (SW-620): 24.2 µM
TGI [4]: 19.1 µM
GI50 (MDA-N): 5.13 µM
GI50 [5]: 17.8 µM
GI50 [6]: 5.25 µM
GI50 (OVCAR-3): 2.82 µM
GI50 (COLO 205): 1.78 µM
TGI (COLO 205): 3.3 µM
GI50 (A549): 4.79 µM
GI50 (NCI-H460): 4.27 µM
GI50 (K562): 3.09 µM
GI50 (KM12): 1.55 µM
TGI (KM12): 4.8 µM
GI50 (SK-MEL-5): 6.03 µM
GI50 (PC-3): 3.47 µM
GI50 (BT-549): 11.5 µM
TGI (NSCLC): 23.4 µM
GI50 (NCI-H522): 7.41 µM
GI50 (RPMI-8226): 2.95 µM
GI50 (NCI-H322M): 12.9 µM
GI50 (ACHN): 7.08 µM
GI50 (DU-145): 10.7 µM
GI50 (SK-OV-3): 11.7 µM
GI50 (SF-295): 4.17 µM
GI50 (EKVX): 10 µM
GI50 (SNB-75): 2.19 µM
GI50 (CCRF-CEM): 2.57 µM
GI50 (HCT-15): 11.5 µM
TGI (HCT-15): 27.5 µM
GI50 (SK-MEL-28): 8.32 µM
GI50 (A498): 14.8 µM
GI50 (MCF7): 1.51 µM
TGI [7]: 21.5 µM
GI50 (UACC-257): 10.2 µM
GI50 (SN12C): 6.03 µM
GI50 (CAKI-1): 13.2 µM
GI50 (NCI-H23): 9.55 µM
TGI [8]: 18.3 µM
GI50 [9]: 2.75 µM
GI50 (HCT-116): 3.47 µM
TGI (HCT-116): 9.8 µM
GI50 (T47D): 7.24 µM
TGI (Leukemia cell): 8.7 µM
GI50 (UO-31): 13.8 µM
GI50 (SNB-19): 5.5 µM
GI50 (HOP-92): 10.7 µM
GI50 (HCC 2998): 1.58 µM
TGI (HCC 2998): 3.5 µM
GI50 (Malme-3M): 11.5 µM
GI50 (OVCAR-5): 2.09 µM
GI50 (U-251): 2.82 µM
GI50 (SK-MEL-2): 2.09 µM
GI50 (HOP-62): 12.9 µM
GI50 (NCI-H226): 6.03 µM
TGI [10]: 16.9 µM
GI50 (MDA-MB-231): 7.76 µM
GI50 (M14): 3.55 µM
GI50 (IGROV-1): 4.79 µM
GI50 (SF-268): 6.61 µM
GI50 (UACC-62): 7.08 µM
GI50 (MOLT-4): 1.95 µM
GI50 (LOX IMVI): 3.98 µM
TGI [11]: 11.3 µM
GI50 (SR): 2.34 µM
GI50 (OVCAR-4): 3.98 µM
GI50 (OVCAR-8): 6.61 µM
